Results taken from patent US20230013669A1, “Antibacterial Treatment Using a Cannabinoid and an Active Agent” (priority 2019, published 2023).
“And” between values parts separate entries of the source, which are not always exact repeats. Equal values may be shown once. Read-outs that look alike come from different tables or passages of the source.

How the values were obtained:
Assay in all cases: Synergy of cannabidiol with cell-wall disrupting agent (CBD MIC in combination, FICI)
Assay type in all cases: cell-based
[1] = tested on: Escherichia coli HS71 (GN_110), CTX-M; conditions: for MIC: Escherichia coli
Description: (§1) The compounds were stored short term at 4° C.
(§2) Analysis was performed using Microsoft Excel.

[2] = tested on: Acinetobacter baumannii 03.021.1 (GN_039), Colistin resistant; conditions: for MIC: Acinetobacter baumannii
Description: as §1, §2

[3] = tested on: Pseudomonas aeruginosa FADDI-PA067 (GN_177), Polymyxin resistant; conditions: for MIC: Pseudomonas aeruginosa
Description: as §1, §2

[4] = tested on: Klebsiella pneumoniae ATCC 700603; conditions: for FICI: CBD MIC taken as 256 μg/mL
Description: Methods were as for Example 1. Cannabidiol was tested in combination with cefotetan.
Methods were as for Example 1. Cannabidiol was tested in combination with aztreonam.
Methods were as for Example 1. Cannabidiol was tested in combination with cefepime.
Methods were as for Example 1. Cannabidiol was tested in combination with octapeptin C4.
Methods were as for Example 1. Cannabidiol was tested in combination with Spero SPR206. The experiments were carried out three times.

[5] = Example 9, GN_039, listed as CBD

C=C(C)C1CCC(C)=CC1c1c(O)cc(CCCCC)cc1O (stereo not drawn) [Cannabidiol, 2-[3-methyl-6-(1-methylethenyl)-2-cyclohexen-1-yl]-5-pentyl-1,3-benzenediol]
MIC ([1]; read-out: CBD MIC with MCC_09222 at concentration 2 μg/mL, Example 9, GN_110): 4 µg/mL
MIC ([1]; read-out: CBD MIC with MCC_09222 at concentration 4 μg/mL, Example 9, GN_110): 1 µg/mL
MIC ([1]; read-out: CBD MIC with MCC_09222 at concentration 8 μg/mL, Example 9, GN_110): 1 µg/mL
MIC ([1]; read-out: CBD MIC with MCC_09222 at concentration 16 μg/mL, Example 9, GN_110): 0.5 µg/mL
MIC ([1]; read-out: CBD MIC with MCC_09222 at concentration 32 μg/mL, Example 9, GN_110): 0.000977 µg/mL
MIC ([1]; read-out: CBD MIC with MCC_09222 at concentration 64 μg/mL, Example 9, GN_110): 0.000977 µg/mL
MIC ([1]; read-out: CBD MIC with MCC_09222 at concentration 128 μg/mL, Example 9, GN_110): 0.000977 µg/mL
cannabidiol in combination with MCC_09222: synergy ([1]; Example 9): synergistic effect
CBD MIC with MCC_09222 at concentration 16 μg/mL ([1]; Example 9, GN_110, listed as CBD): 1 µg/mL
MIC ([2]; read-out: CBD MIC with MCC_00636 at concentration 0.25 μg/mL, Example 8, GN_039): 4 µg/mL
MIC ([2]; read-out: CBD MIC with MCC_00636 at concentration 0.5 μg/mL, Example 8, GN_039): 0.000977 µg/mL
MIC ([2]; read-out: CBD MIC with MCC_00636 at concentration 1 μg/mL, Example 8, GN_039): 0.000977 µg/mL
MIC ([2]; read-out: CBD MIC with MCC_00636 at concentration […], Example 8, GN_039): 4 µg/mL
MIC ([2]; read-out: CBD MIC with MCC_09222 at concentration 16 μg/mL, Example 9, GN_039): 1 µg/mL
MIC ([2]; read-out: CBD MIC with MCC_09222 at concentration 32 μg/mL, Example 9, GN_039): 0.5 µg/mL
MIC ([2]; read-out: CBD MIC with MCC_09222 at concentration 64 μg/mL, Example 9, GN_039): 0.000977 µg/mL
MIC ([2]; read-out: CBD MIC with MCC_09222 at concentration 128 μg/mL, Example 9, GN_039): 0.000977 µg/mL
cannabidiol combined with Polymyxin B: synergy ([2]; Example 8): synergy
cannabidiol in combination with MCC_09222: synergy ([2]; Example 9): synergistic effect
CBD MIC with MCC_09222 at concentration 16 μg/mL [2, 5]: 2 µg/mL
CBD MIC with MCC_09222 at concentration 32 μg/mL [2, 5]: 1 µg/mL
cannabidiol combined with Polymyxin B: synergy ([3]; Example 8): synergy
MIC ([3]; read-out: CBD MIC with MCC_00636 at concentration 0.015625 μg/mL): > 256 µg/mL
MIC ([3]; read-out: CBD MIC with MCC_00636 at concentration 0.03125 μg/mL): > 256 µg/mL
MIC ([3]; read-out: CBD MIC with MCC_00636 at concentration 0.0625 μg/mL): > 256 µg/mL
MIC ([3]; read-out: CBD MIC with MCC_00636 at concentration 0.25 μg/mL): > 256 µg/mL
MIC ([3]; read-out: CBD MIC with MCC_00636 at concentration 0.5 μg/mL): 4 µg/mL
MIC ([3]; read-out: CBD MIC with MCC_00636 at concentration 1 μg/mL): 0.5 µg/mL
MIC ([3]; read-out: CBD MIC with MCC_00636 at concentration 2 μg/mL): 0.000977 µg/mL
MIC ([3]; read-out: CBD MIC with MCC_00636 at concentration 4 μg/mL): 0.000977 µg/mL
MIC ([3]; read-out: CBD MIC with MCC_00636 at concentration […]): > 256 µg/mL
CBD MIC with Aztreonam ([4]; Aztreonam at 64 μg/mL): 0.001 µg/mL
FICI ([4]; CBD with Aztreonam at 2 μg/mL): 1
FICI ([4]; CBD with Aztreonam at 4 μg/mL): 1
FICI ([4]; CBD with Aztreonam at 8 μg/mL): 1.001
FICI ([4]; CBD with Aztreonam at 16 μg/mL): 1.002
FICI ([4]; CBD with Aztreonam at 32 μg/mL): 1.004
FICI ([4]; CBD with Aztreonam at 64 μg/mL): 0.007816
FICI range ([4]; CBD with Aztreonam, Synergy table (Table 76)): 0.008
FICI range ([4]; CBD with Aztreonam, all tested concentrations (Table 74)): 0.01-1
FICI ([4]; CBD with Cefepime at 0.015 μg/mL): 1.015
FICI ([4]; CBD with Cefepime at 0.031 μg/mL): 1.031
FICI ([4]; CBD with Cefepime at 0.062 μg/mL): 1.062
FICI ([4]; CBD with Cefepime at 0.5 μg/mL): 1.5
FICI range ([4]; CBD with Cefepime, all tested concentrations (Table 79)): 1.02-1.5
FICI ([4]; CBD with Cefotetan at 0.015 μg/mL): 1.03 and 1.015
FICI ([4]; CBD with Cefotetan at 0.031 μg/mL): 1.062 and 1.031
FICI ([4]; CBD with Cefotetan at 0.062 μg/mL): 1.124 and 1.062
FICI ([4]; CBD with Cefotetan at 0.25 μg/mL): 1.5
FICI ([4]; CBD with Cefotetan at 0.5 μg/mL): 1 and 0.5
FICI ([4]; CBD with Octapeptin C4 at 0.25 μg/mL): 1.0625
FICI ([4]; CBD with Octapeptin C4 at 0.5 μg/mL): 1.0625
FICI ([4]; CBD with Octapeptin C4 at 2 μg/mL): 1.5
FICI ([4]; CBD with Octapeptin C4 at […]): 1.016
